Data: patent US9695155B2, “Herbicidal substituted pyrimidinyloxy benzene compounds” (E. I. DU PONT DE NEMOURS AND COMPANY, priority 2013, dated 2017)

Columns and labels:
chickweed = assay: Test C postemergence; assay type: in vivo, Stellaria media; settings: for Chickweed plant response rating / Plant response rating, Chickweed: scale 0 to 100 (0 no effect, 100 complete control)
In short: (§1)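 Injury was assessed visually against controls 13 to 15 days after application, with 0 meaning no effect and 100 full control; missing entries are shown as a dash. Preemergence sprays hit seeded loam–sand soil, postemergence sprays hit 1- to 4-leaf plants.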

giant foxtail [1] = assay: Test C postemergence; assay type: in vivo, Setaria faberii; settings: for Foxtail, Giant plant response rating / Plant response rating, Foxtail, Giant: scale 0 to 100 (0 no effect, 100 complete control)
In short: as §1

blackgrass = assay: Test C postemergence; assay type: in vivo, Alopecurus myosuroides; settings: for Blackgrass plant response rating / Plant response rating, Blackgrass: scale 0 to 100 (0 no effect, 100 complete control)
In short: as §1

morningglory [2] = assay: Test A postemergence; assay type: in vivo, Ipomoea spp.; settings: 0 to 100 scale where 0 is no effect and 100 is complete control
In short: (§2)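 Greenhouse pot test, loam/sand soil. Formulation: non-phytotoxic solvent mix plus surfactant. Pre: directed spray onto soil after sowing. Post: plants at 1–2 leaf, 2–10 cm. Rated visually vs untreated controls at ~10 d, 0 (no effect) to 100 (complete control).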

giant foxtail [3] = assay: Test A preemergence; assay type: in vivo, Setaria faberii; settings: for Foxtail, Giant plant response rating: 500 g ai/ha
In short: as §2

pigweed [4] = assay: Test A preemergence; assay type: in vivo, Amaranthus retroflexus; settings: for Pigweed plant response rating: 500 g ai/ha
In short: as §2

sedge, umbrella = assay: Test B flooded paddy test; assay type: in vivo, Cyperus difformis; settings: Flood, 250 g ai/ha; 0 to 100 scale where 0 is no effect and 100 is complete control
In short: (§3)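 Scores from 0 (no effect) to 100 (complete control) are visual comparisons with controls, taken 13 to 15 days after compound was applied into floodwater 3 cm deep around 2-leaf plants.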

barnyardgrass [5] = assay: Test A preemergence; assay type: in vivo, Echinochloa crus-galli; settings: for Barnyardgrass plant response rating: 500 g ai/ha
In short: as §2

johnsongrass = assay: Test C postemergence; assay type: in vivo, Sorghum halepense; settings: for Johnsongrass plant response rating / Plant response rating, Johnsongrass: scale 0 to 100 (0 no effect, 100 complete control)
In short: as §1

corn = assay: Test C postemergence; assay type: in vivo, Zea mays; settings: for Corn plant response rating / Plant response rating, Corn: scale 0 to 100 (0 no effect, 100 complete control)
In short: as §1

large (Lg) crabgrass = assay: Test C postemergence; assay type: in vivo, Digitaria sanguinalis; settings: for Crabgrass, Large plant response rating / Plant response rating, Crabgrass, Large: scale 0 to 100 (0 no effect, 100 complete control)
In short: as §1

barnyardgrass [6] = assay: Test B flooded paddy test; assay type: in vivo, Echinochloa crus-galli; settings: Flood, 250 g ai/ha; 0 to 100 scale where 0 is no effect and 100 is complete control
In short: as §3

morningglory [7] = assay: Test A preemergence; assay type: in vivo, Ipomoea spp.; settings: for Morningglory plant response rating: 500 g ai/ha
In short: as §2

pigweed [8] = assay: Test A postemergence; assay type: in vivo, Amaranthus retroflexus; settings: 0 to 100 scale where 0 is no effect and 100 is complete control
In short: as §2

Italian ryegrass = assay: Test C postemergence; assay type: in vivo, Lolium multiflorum; settings: for Ryegrass, Italian plant response rating / Plant response rating, Ryegrass, Italian: scale 0 to 100 (0 no effect, 100 complete control)
In short: as §1

[9] = 16 g ai/ha, postemergence, 0 is no effect, 100 is complete control
[10] = 31 g ai/ha, postemergence, visual rating, 13 to 15 days
[11] = 125 g ai/ha, postemergence, visual rating
[12] = 0 to 100 scale where 0 is no effect and 100 is complete control
[13] = 125 g ai/ha, 0 to 100 scale where 0 is no effect and 100 is complete control
[14] = Postemergence, 31 g ai/ha, 13 to 15 days
[15] = 0 to 100 scale, 0 no effect, 100 complete control, approx. 10 days

SMILES: FC(F)(F)c1cnn(-c2c(Br)cccc2Oc2ncc(Cl)cn2)c1 [Compound 191]
- Plant response rating (0 to 100), Chickweed (chickweed; [9]): 10
- Chickweed plant response rating (chickweed; [10]): 80
- Plant response rating, Chickweed (chickweed; [11]): 98
- Plant response rating, Chickweed (chickweed; Postemergence, 62 g ai/ha): 80
- Plant response rating (0 to 100), Foxtail, Giant (giant foxtail [1]; [9]): 10
- Foxtail, Giant plant response rating (giant foxtail [1]; [10]): 10
- Plant response rating, Foxtail, Giant (giant foxtail [1]; [11]): 15
- Plant response rating, Foxtail, Giant (giant foxtail [1]; Postemergence, 62 g ai/ha): 10
- Plant response rating (0 to 100), Blackgrass (blackgrass; [9]): 0
- Blackgrass plant response rating (blackgrass; [10]): 0
- Plant response rating, Blackgrass (blackgrass; [11]): 10
- Plant response rating, Blackgrass (blackgrass; Postemergence, 62 g ai/ha): 5
- Morningglory plant response rating (morningglory [2]; 125 g ai/ha): 80
- Plant response rating, Morningglory (morningglory [2]; 500 g ai/ha): 100
- Foxtail, Giant plant response rating (0 to 100 scale) (giant foxtail [3]; 125 g ai/ha): 100
- Foxtail, Giant plant response rating (giant foxtail [3]; [12]): 100
- Pigweed plant response rating (0 to 100 scale) (pigweed [4]; 125 g ai/ha): 100
- Pigweed plant response rating (pigweed [4]; [12]): 100
- Plant response rating, Sedge, Umbrella (sedge, umbrella): 95
- Barnyardgrass plant response rating (0 to 100 scale, 0 is no effect, 100 is complete control) (barnyardgrass [5]; 125 g ai/ha): 70
- Barnyardgrass plant response rating (barnyardgrass [5]; [12]): 100
- Plant response rating (0 to 100), Johnsongrass (johnsongrass; [9]): 30
- Johnsongrass plant response rating (johnsongrass; [10]): 10
- Plant response rating, Johnsongrass (johnsongrass; [11]): 10
- Plant response rating, Johnsongrass (johnsongrass; Postemergence, 62 g ai/ha): 15
- Plant response rating (0 to 100), Corn (corn; [9]): 5
- Corn plant response rating (corn; [10]): 5
- Plant response rating, Corn (corn; [11]): 10
- Plant response rating, Corn (corn; Postemergence, 62 g ai/ha): 10
- Plant response rating (0 to 100), Crabgrass, Large (large (Lg) crabgrass; [9]): 5
- Crabgrass, Large plant response rating (large (Lg) crabgrass; [10]): 5
- Plant response rating, Crabgrass, Large (large (Lg) crabgrass; [11]): 10
- Plant response rating, Crabgrass, Large (large (Lg) crabgrass; Postemergence, 62 g ai/ha): 5
- Plant response rating, Barnyardgrass (barnyardgrass [6]): 40
- Morningglory plant response rating (0 to 100 scale) (morningglory [7]; 125 g ai/ha): 50
- Morningglory plant response rating (morningglory [7]; [12]): 70
- Pigweed plant response rating (pigweed [8]; 125 g ai/ha): 100
- Plant response rating, Pigweed (pigweed [8]; 500 g ai/ha): 100
- Plant response rating (0 to 100), Ryegrass, Italian (Italian ryegrass; [9]): 0
- Ryegrass, Italian plant response rating (Italian ryegrass; [10]): 0
- Plant response rating, Ryegrass, Italian (Italian ryegrass; [11]): 5
- Plant response rating, Ryegrass, Italian (Italian ryegrass; Postemergence, 62 g ai/ha): 5

SMILES: FC(F)c1cccc(Oc2ncc(Br)cn2)c1-n1cc(C(F)(F)F)cn1 [Compound 163]
- Plant response rating (0 to 100), Chickweed (chickweed; [9]): 40
- Chickweed plant response rating (chickweed; [10]): 80
- Plant response rating, Chickweed (chickweed; [11]): 95
- Plant response rating, Chickweed (chickweed; Postemergence, 62 g ai/ha): 80
- Plant response rating (0 to 100), Foxtail, Giant (giant foxtail [1]; [9]): 5
- Foxtail, Giant plant response rating (giant foxtail [1]; [10]): 5
- Plant response rating, Foxtail, Giant (giant foxtail [1]; [11]): 10
- Plant response rating, Foxtail, Giant (giant foxtail [1]; Postemergence, 62 g ai/ha): 10
- Plant response rating (0 to 100), Blackgrass (blackgrass; [9]): 0
- Blackgrass plant response rating (blackgrass; [10]): 5
- Plant response rating, Blackgrass (blackgrass; [11]): 15
- Plant response rating, Blackgrass (blackgrass; Postemergence, 62 g ai/ha): 5
- Morningglory plant response rating (morningglory [2]; 125 g ai/ha): 90
- Plant response rating, Morningglory (morningglory [2]; 500 g ai/ha): 100
- Plant response rating, Foxtail, Giant (giant foxtail [3]; [13]): 100
- Foxtail, Giant plant response rating (giant foxtail [3]; [12]): 100
- Pigweed plant response rating (0 to 100 scale) (pigweed [4]; 125 g ai/ha): 100
- Pigweed plant response rating (pigweed [4]; [12]): 100
- Plant response rating, Sedge, Umbrella (sedge, umbrella): 90
- Plant response rating, Barnyardgrass (barnyardgrass [5]; [13]): 50
- Barnyardgrass plant response rating (barnyardgrass [5]; [12]): 100
- Plant response rating (0 to 100), Johnsongrass (johnsongrass; [9]): 5
- Johnsongrass plant response rating (johnsongrass; [10]): 5
- Plant response rating, Johnsongrass (johnsongrass; [11]): 10
- Plant response rating, Johnsongrass (johnsongrass; Postemergence, 62 g ai/ha): 5
- Plant response rating (0 to 100), Corn (corn; [9]): 5
- Corn plant response rating (corn; [10]): 5
- Plant response rating, Corn (corn; [11]): 10
- Plant response rating, Corn (corn; Postemergence, 62 g ai/ha): 10
- Plant response rating (0 to 100), Crabgrass, Large (large (Lg) crabgrass; [9]): 5
- Crabgrass, Large plant response rating (large (Lg) crabgrass; [10]): 5
- Plant response rating, Crabgrass, Large (large (Lg) crabgrass; [11]): 10
- Plant response rating, Crabgrass, Large (large (Lg) crabgrass; Postemergence, 62 g ai/ha): 10
- Plant response rating, Barnyardgrass (barnyardgrass [6]): 0
- Morningglory plant response rating (0 to 100 scale) (morningglory [7]; 125 g ai/ha): 0
- Morningglory plant response rating (morningglory [7]; [12]): 70
- Pigweed plant response rating (pigweed [8]; 125 g ai/ha): 100
- Plant response rating, Pigweed (pigweed [8]; 500 g ai/ha): 100
- Plant response rating (0 to 100), Ryegrass, Italian (Italian ryegrass; [9]): 0
- Ryegrass, Italian plant response rating (Italian ryegrass; [10]): 0
- Plant response rating, Ryegrass, Italian (Italian ryegrass; [11]): 10
- Plant response rating, Ryegrass, Italian (Italian ryegrass; Postemergence, 62 g ai/ha): 0

SMILES: N#Cc1cccc(Oc2ncc(Cl)cn2)c1-n1cc(Cl)cn1 [Compound 72]
- Plant response rating (0 to 100), Chickweed (chickweed; 125 g ai/ha, postemergence): 80
- Plant response rating (0 to 100), Chickweed (chickweed; 250 g ai/ha, postemergence): 80
- Plant response rating, Chickweed (chickweed; [14]): 50
- Plant response rating, Chickweed (chickweed; Postemergence, 62 g ai/ha): 65
- Plant response rating (0 to 100), Foxtail, Giant (giant foxtail [1]; 125 g ai/ha, postemergence): 10
- Plant response rating (0 to 100), Foxtail, Giant (giant foxtail [1]; 250 g ai/ha, postemergence): 65
- Plant response rating, Foxtail, Giant (giant foxtail [1]; [14]): 10
- Plant response rating, Foxtail, Giant (giant foxtail [1]; Postemergence, 62 g ai/ha): 10
- Plant response rating (0 to 100), Blackgrass (blackgrass; 125 g ai/ha, postemergence): 15
- Plant response rating (0 to 100), Blackgrass (blackgrass; 250 g ai/ha, postemergence): 15
- Plant response rating, Blackgrass (blackgrass; [14]): 10
- Plant response rating, Blackgrass (blackgrass; Postemergence, 62 g ai/ha): 10
- Plant response rating, Morningglory (morningglory [2]; 125 g ai/ha): 90
- Plant response rating, Morningglory (morningglory [2]; 500 g ai/ha): 100
- Plant response rating, Foxtail, Giant (giant foxtail [3]; [13]): 100
- Foxtail, Giant plant response rating (giant foxtail [3]; [15]): 100
- Plant response rating, Pigweed (pigweed [4]; [13]): 100
- Pigweed plant response rating (pigweed [4]; [15]): 100
- Plant response rating, Sedge, Umbrella (sedge, umbrella): 85
- Plant response rating, Barnyardgrass (barnyardgrass [5]; [13]): 80
- Barnyardgrass plant response rating (barnyardgrass [5]; [15]): 100
- Plant response rating (0 to 100), Johnsongrass (johnsongrass; 125 g ai/ha, postemergence): 5
- Plant response rating (0 to 100), Johnsongrass (johnsongrass; 250 g ai/ha, postemergence): 25
- Plant response rating, Johnsongrass (johnsongrass; [14]): 0
- Plant response rating, Johnsongrass (johnsongrass; Postemergence, 62 g ai/ha): 5
- Plant response rating (0 to 100), Corn (corn; 125 g ai/ha, postemergence): 15
- Plant response rating (0 to 100), Corn (corn; 250 g ai/ha, postemergence): 20
- Plant response rating, Corn (corn; [14]): 5
- Plant response rating, Corn (corn; Postemergence, 62 g ai/ha): 10
- Plant response rating (0 to 100), Crabgrass, Large (large (Lg) crabgrass; 125 g ai/ha, postemergence): 55
- Plant response rating (0 to 100), Crabgrass, Large (large (Lg) crabgrass; 250 g ai/ha, postemergence): 60
- Plant response rating, Crabgrass, Large (large (Lg) crabgrass; [14]): 5
- Plant response rating, Crabgrass, Large (large (Lg) crabgrass; Postemergence, 62 g ai/ha): 10
- Plant response rating, Barnyardgrass (barnyardgrass [6]): 0
- Plant response rating, Morningglory (morningglory [7]; [13]): 80
- Morningglory plant response rating (morningglory [7]; [15]): 100
- Plant response rating, Pigweed (pigweed [8]; 125 g ai/ha): 100
- Plant response rating, Pigweed (pigweed [8]; 500 g ai/ha): 100
- Plant response rating (0 to 100), Ryegrass, Italian (Italian ryegrass; 125 g ai/ha, postemergence): 10
- Plant response rating (0 to 100), Ryegrass, Italian (Italian ryegrass; 250 g ai/ha, postemergence): 10
- Plant response rating, Ryegrass, Italian (Italian ryegrass; [14]): 5
- Plant response rating, Ryegrass, Italian (Italian ryegrass; Postemergence, 62 g ai/ha): 5
